The results in this text go back to patent US10639299B2, “Calcium sensing receptors, ligands, compositions, and methods of use” (Georgia State University Research Foundation, Inc., priority 2016, dated 2020).

The assay addresses T1, hCaSR-ECD (Homo sapiens, UniProt P41180).
T1 construct: made in house; host or cells: HEK293S (GnTI-) suspension culture, secreted
T1 sequence (P41180 20-612): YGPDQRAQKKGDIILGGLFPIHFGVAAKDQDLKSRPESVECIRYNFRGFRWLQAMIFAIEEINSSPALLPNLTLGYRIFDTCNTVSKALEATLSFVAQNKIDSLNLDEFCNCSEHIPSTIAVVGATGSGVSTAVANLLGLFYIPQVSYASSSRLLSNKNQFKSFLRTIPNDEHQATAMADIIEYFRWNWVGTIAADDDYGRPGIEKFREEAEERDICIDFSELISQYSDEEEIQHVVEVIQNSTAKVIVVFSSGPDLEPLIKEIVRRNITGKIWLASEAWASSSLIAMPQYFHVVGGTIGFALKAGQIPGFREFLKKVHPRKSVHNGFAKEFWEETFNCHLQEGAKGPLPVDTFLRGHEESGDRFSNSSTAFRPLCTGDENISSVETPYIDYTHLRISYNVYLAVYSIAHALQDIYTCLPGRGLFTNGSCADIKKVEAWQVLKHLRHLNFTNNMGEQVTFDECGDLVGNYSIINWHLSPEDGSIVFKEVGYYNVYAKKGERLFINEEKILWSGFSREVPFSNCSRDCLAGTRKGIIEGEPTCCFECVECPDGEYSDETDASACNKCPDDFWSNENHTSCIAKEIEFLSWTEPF
Description: Phenylalanine replacement of TNCA bound to hCaSR-ECD, LC-ESI-MS. Type of assay: binding. The conditions noted are these: overnight, 838 at 0 mM. As to the method:
Considering CaSR ligand is tightly bound with hCaSR-ECD, it is conceivable that hCaSR-ECD has to be denatured to release CaSR ligand. To extract CaSR ligand, 50 μL of purified hCaSR-ECD (10 mg/mL) was mixed with 120 μL acetonitrile and vortexed. After high speed centrifugation, 10 μL of the CaSR ligand extract was injected onto a reverse-phase ACQUITY UPLC BEH C18 column (2.1 mm×100 mm, 1.7-μm particle size; Waters). Column temperature was maintained at 40° C. The flow rate was 0.3 mL/min with starting conditions at 99% solvent A (water+0.1% formic acid) and 1% solvent B (acetonitrile). The 15-min gradient profile for elution was as follows: starting at 1% solvent B and hold for 1 min, then ramping to 98% B at 10 min, hold at 98% B to 12 min, at 12.01 min return to 99% A/1% B and maintain until 15 min. The samples were analyzed by using a Waters Xevo G2-XS QToF LC-MS interfaced to a Waters Acquity UPLC system. […] Fragmentation, formula, and abundances were analyzed with Waters MassLynx Software.
A phenylalanine replacement experiment was carried out by mixing purified hCaSR-ECD protein (0.26 mg/mL) with phenylalanine (final concentrations are 0, 50 and 150 mM, respectively). […] The protein samples were adjusted to the same concentration using SEC buffer and analyzed by LC-ESI-MS.

Structures are written as SMILES.

With `N[C@@H](Cc1ccccc1)C(=O)O` [Phe, phenylalanine], the “area under the MS peak of TNCA remaining bound to hCaSR-ECD” value (50 mM phenylalanine) amounted to 180 and the “area under the MS peak of TNCA remaining bound to hCaSR-ECD” value (150 mM phenylalanine) amounted to 76.
